Measured values taken from patent publication US20070123473A1, “Glycosylated steroid derivatives with anti-migratory activity” (priority 2003, published 2007).

Tests used:
[1] = tested on: Hs578T (breast cancer); test: Cell migration of cancer cells (phase-contrast videomicroscopy), Hs578T; format: cell-based, human
Protocol: (§1) Cells of different types of cancer, i.e. U-373 MG (Glioma), Hs578T (breast cancer), PC-3 (prostate cancer) and A549 (lung cancer) were seeded on culture flask 48 hours before the migration experiment. On the test day, cells were treated with or without compounds UBS3270, UBS3285, UBS3327, UBS3328, UBS3501, UBS3585, UBS3597, UBS3976, UBS4066, UBS4095, UBS4104, UBS4109, UBS4209 and UBS4373 in closed Falcon dishes containing a buffered medium at a controlled temperature (37.0±0.1° C.) for 12 or 24 hours. The compounds were administered at 4 concentrations (10^−7 M to 10^−10 M). Migration of the cells was observed by means of a CCD-camera mounted on a phase-contrast microscope. A statistical analyse of the migration, with the non-parametric Mann-Whitney test, was established for 25%-50% of the most motile cells and for the entire cell population for UBS3270, UBS3285, UBS3327, UBS3328, UBS3501, UBS3585, UBS3597, UBS3976, UBS4066, UBS4095, UBS4104, UBS4109, UBS4209 and UBS4373 compounds. The table C below illustrates the anti-migratory effect of the compound according to the invention.

[2] = tested on: P388 lymphoma; test: Survival of P388 lymphoma bearing mice (T/C index); format: in vivo, mouse; details: 40 mg/kg subcutaneously, T/C of 130% or more = significant prolongation of survival
Protocol: The compounds UBS3328 and UBS3501 were evaluated on the aggressive P388 lymphoma cancer model. When leukemic P388 cells of lymphoblastic origin (Pihl A. UICC Study Group on chemosensitivity testing of human tumors. Problems-applications-future prospects. Int J Cancer. 1986 Jan. 15; 37(1):1-5) are grafted subcutaneously, they develop as very biologically aggressive anaplastic lymphomas markedly metastasizing first into the liver, then in the lungs and occasionally in kidneys. The mice suffering from P388 lymphomas usually die about 2 weeks after the cell injection. The P388 lymphoma was thus used as a model representative of a clinically terminal state of cancer.
The model was performed with 5 mice per group and the compounds UBS3328 and UBS3501 were injected subcutaneously at 40 mg/kg for 4 days, two times per day, for the two first weeks post graft followed by one administration everyday, one times per day for the third week post graft.
The effect of the compounds UBS3328 and UBS3501 on the survival of the P388 cancer bearing mice is evaluated following the analysis of the T/C index. T/C index is calculated by dividing the median day of death in a treated group T by the median day of death in the control group C. T/C values of 130% or more (i.e. a prolongation of mice survival of 30% or more) indicate a significant prolongation of survival.

[3] = tested on: A549 (lung cancer); test: Cell migration of cancer cells (phase-contrast videomicroscopy), A549; format: cell-based, human; details: 25% of most motile cells
Protocol: as §1

[4] = tested on: U-373 MG (Glioma); test: Cell migration of cancer cells (phase-contrast videomicroscopy), U-373 MG; format: cell-based, human
Protocol: as §1

[5] = tested on: PC-3 (prostate cancer); test: Cell migration of cancer cells (phase-contrast videomicroscopy), PC-3; format: cell-based, human
Protocol: as §1

[6] = 24 hours, 25% of most motile cells, 10^−9 M
[7] = 12 hours, entire cell population, 10^−9 M

COc1ccc(OC)c(C2CC3C4CC=C5CC(OC6O[C@H](CO)[C@@H](O)[C@H](O)[C@@H]6O)CCC5(C)C4CCC3(C)C2C(C)=O)c1 (some centres unmarked) [UBS3270]
Max. effects (anti-migratory effect) ([1]; 24 hours, 50% of most motile cells, 10^−7 M): −27%/p < 0.001

COc1ccc(OC)c(C2CC3C4CC=C5CC(OC6O[C@H](CO[C@H]7O[C@H](CO)[C@@H](O)[C@H](O)[C@H]7O)[C@@H](O)[C@H](O)[C@H]6O)CCC5(C)C4CCC3(C)C2C(C)=O)c1 (some centres unmarked) [UBS3328]
T/C index (median day of death treated / control) [2]: 135% | Max. effects (anti-migratory effect) ([3]; 24 hours, 10^−7 M): −40%/p < 0.001 | Max. effects (anti-migratory effect) ([4]; 12 hours, entire cell population, 10^−10 M): −27%/p < 0.001

COc1ccc(OC)c(C2CC3C4CC=C5CC(OC6O[C@@H](C)[C@@H](O)[C@@H](O)[C@@H]6O)CCC5(C)C4CCC3(C)C2C(C)=O)c1 (some centres unmarked) [UBS3501]
T/C index (median day of death treated / control) [2]: 141% | Max. effects (anti-migratory effect) ([4]; 24 hours, 25% of most motile cells, 10^−8 M): −38%/p = 0.01 | Max. effects (anti-migratory effect) ([5]; 12 hours, 25% of most motile cells, 10^−7 M): −23%/p < 0.001

COc1ccc(OC)c(C2CC3C4CC=C5CC(OC6O[C@H](CO)[C@@H](O)[C@H](O)[C@H]6NC(C)=O)CCC5(C)C4CCC3(C)C2C(C)=O)c1 (some centres unmarked) [UBS3585]
Max. effects (anti-migratory effect) ([1]; 24 hours, entire cell population, 10^−7 M): −27%/p < 0.001

COc1ccc(OC)c(C2CC3C4CC=C5CC(OC6O[C@H](CO)[C@H](O)[C@H](O)[C@H]6NC(C)=O)CCC5(C)C4CCC3(C)C2C(C)=O)c1 (some centres unmarked) [UBS3597]
Max. effects (anti-migratory effect) [5, 6]: −31%/p < 0.001

COc1ccc(OC)c(C2CC3C4CC=C5CC(OC6O[C@H](CO)[C@@H](O[C@@H]7O[C@H](CO)[C@H](O)[C@H](O)[C@H]7O)[C@H](O)[C@H]6O)CCC5(C)C4CCC3(C)C2C(C)=O)c1 (some centres unmarked) [UBS3976]
Max. effects (anti-migratory effect) ([4]; 24 hours, 25% of most motile cells, 10^−10 M): −46%/p < 0.001 | Max. effects (anti-migratory effect) ([5]; 12 hours, 25% of most motile cells, 10^−8 M): −51%/p < 0.001

COc1ccc(OC)c(C2CC3C4CC=C5CC(OC6O[C@@H](C)[C@@H](O)[C@@H](O)[C@@H]6O)CCC5(C)C4CCC3(C)C2C(C)OC2O[C@@H](C)[C@@H](O)[C@@H](O)[C@@H]2O)c1 (some centres unmarked) [UBS4066]
Max. effects (anti-migratory effect) ([1]; 12 hours, 25% of most motile cells, 10^−9 M): −29%/p < 0.001 | Max. effects (anti-migratory effect) [5, 6]: −45%/p < 0.001

COc1ccc(OC)c(C2CC3C4CC=C5CC(OC6O[C@H](CO)[C@@H](O[C@H]7O[C@H](CO)[C@@H](O)[C@H](O)[C@H]7O)[C@H](O)[C@H]6O)CCC5(C)C4CCC3(C)C2C(C)=O)c1 (some centres unmarked) [UBS4095]
Max. effects (anti-migratory effect) ([4]; 24 hours, entire cell population, 10^−9 M): −27%/p < 0.001

COc1ccc(OC)c(C2CC3C4CC=C5CC(O[C@@H]6O[C@H](CO)[C@@H](O)[C@H](O)[C@H]6NC(C)=O)CCC5(C)C4CCC3(C)C2C(C)=O)c1 (some centres unmarked) [UBS4104]
Max. effects (anti-migratory effect) ([3]; 24 hours, 10^−10 M): −46%/p < 0.001 | Max. effects (anti-migratory effect) ([4]; 12 hours, 50% of most motile cells, 10^−10 M): −23%/p < 0.001

COc1ccc(OC)c(C2CC3C4CC=C5CC(OC6O[C@H](CO)[C@@H](O[C@@H]7O[C@H](CO)[C@@H](O)[C@H](O)[C@H]7O)[C@H](O)[C@H]6O)CCC5(C)C4CCC3(C)C2C(C)OC2O[C@H](CO)[C@@H](O[C@@H]3O[C@H](CO)[C@@H](O)[C@H](O)[C@H]3O)[C@H](O)[C@H]2O)c1 (some centres unmarked) [UBS4109]
Max. effects (anti-migratory effect) [5, 7]: −34%/p < 0.001

COc1ccc(OC)c(C2CC3C4CC=C5CC(OC6O[C@H](CO)[C@@H](O[C@@H]7O[C@H](CO)[C@H](O)[C@H](O)[C@H]7O)[C@H](O)[C@H]6O)CCC5(C)C4CCC3(C)C2C(C)OC2O[C@H](CO)[C@@H](O[C@@H]3O[C@H](CO)[C@H](O)[C@H](O)[C@H]3O)[C@H](O)[C@H]2O)c1 (some centres unmarked) [UBS4209]
Max. effects (anti-migratory effect) ([3]; 12 hours, 10^−8 M): −26%/p < 0.001 | Max. effects (anti-migratory effect) ([1]; 24 hours, 25% of most motile cells, 10^−7 M): −26%/p < 0.001

COc1ccc(OC)c(C2CC3C4CC=C5CC(OC6O[C@H](CO[C@H]7O[C@H](CO)[C@@H](O)[C@H](O)[C@H]7O)[C@@H](O)[C@H](O)[C@H]6O)CCC5(C)C4CCC3(C)C2C(C)OC2O[C@H](CO[C@H]3O[C@H](CO)[C@@H](O)[C@H](O)[C@H]3O)[C@@H](O)[C@H](O)[C@H]2O)c1 (some centres unmarked) [UBS4373]
Max. effects (anti-migratory effect) [4, 7]: −24%/p < 0.001
